In publication PMC8500670, “A selective WDR5 degrader inhibits acute myeloid leukemia in patient-derived mouse models” (Science translational medicine, 2021):
Where two headings read alike, the source gives them in different places.

Assays:
Assay in all cases: biochemical
Set-up in all cases: protein methyltransferase selectivity panel, enzyme activity relative to DMSO controls, single concentration in duplicate
G9a = target: T1, G9a (Homo sapiens, UniProt Q96KQ7); conditions: Substrate:=Histone H3 1-21
T1 construct: gene EHMT2
T1 sequence (Q96KQ7 1-1210): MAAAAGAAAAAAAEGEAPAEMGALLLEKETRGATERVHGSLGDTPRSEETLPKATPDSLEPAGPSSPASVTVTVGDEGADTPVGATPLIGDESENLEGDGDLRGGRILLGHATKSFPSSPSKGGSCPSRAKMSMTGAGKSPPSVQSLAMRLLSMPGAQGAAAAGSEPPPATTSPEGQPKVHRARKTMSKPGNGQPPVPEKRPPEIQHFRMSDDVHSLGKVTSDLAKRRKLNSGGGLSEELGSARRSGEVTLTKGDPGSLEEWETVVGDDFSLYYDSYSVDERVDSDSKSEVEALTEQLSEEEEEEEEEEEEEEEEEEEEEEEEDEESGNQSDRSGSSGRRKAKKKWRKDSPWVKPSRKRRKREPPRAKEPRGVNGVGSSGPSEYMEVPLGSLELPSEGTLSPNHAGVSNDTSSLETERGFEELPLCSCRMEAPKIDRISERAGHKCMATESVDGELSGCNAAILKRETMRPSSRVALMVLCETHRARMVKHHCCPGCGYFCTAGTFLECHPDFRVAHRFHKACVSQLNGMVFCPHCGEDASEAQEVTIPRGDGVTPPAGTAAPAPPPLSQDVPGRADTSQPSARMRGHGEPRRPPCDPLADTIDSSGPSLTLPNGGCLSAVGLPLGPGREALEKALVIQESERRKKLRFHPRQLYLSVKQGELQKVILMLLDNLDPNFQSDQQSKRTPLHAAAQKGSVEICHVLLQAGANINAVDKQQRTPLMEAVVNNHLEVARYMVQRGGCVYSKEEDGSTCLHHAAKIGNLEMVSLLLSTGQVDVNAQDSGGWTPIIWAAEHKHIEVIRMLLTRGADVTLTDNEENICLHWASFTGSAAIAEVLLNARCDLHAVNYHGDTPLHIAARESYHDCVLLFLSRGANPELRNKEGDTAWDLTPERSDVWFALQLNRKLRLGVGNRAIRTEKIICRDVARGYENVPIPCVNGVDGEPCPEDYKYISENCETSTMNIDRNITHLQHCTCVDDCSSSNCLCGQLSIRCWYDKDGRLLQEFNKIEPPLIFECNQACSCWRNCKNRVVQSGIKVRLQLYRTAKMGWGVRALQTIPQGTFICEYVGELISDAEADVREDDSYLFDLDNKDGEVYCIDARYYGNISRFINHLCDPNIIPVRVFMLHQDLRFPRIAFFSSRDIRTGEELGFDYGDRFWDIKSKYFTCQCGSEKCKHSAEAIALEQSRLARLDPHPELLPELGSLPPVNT
Procedure: (§1) We next assessed selectivity of MS67 against 22 protein methyltransferases (table S2) and a broad panel of common drug targets including 45 kinases (table S3) and 44 G protein–coupled receptors (GPCR), ion channels, and transporters (table S4). […] We subsequently determined that MS67 had moderate binding affinity (Ki = 1.0 ± 0.8 μM) to Sigma 2 receptor (fig. S10).

NSD1 = NSD1 (Homo sapiens, UniProt Q96L73); conditions: Substrate:=Nucleosomes
Chain of NSD1 (Q96L73 whole entry): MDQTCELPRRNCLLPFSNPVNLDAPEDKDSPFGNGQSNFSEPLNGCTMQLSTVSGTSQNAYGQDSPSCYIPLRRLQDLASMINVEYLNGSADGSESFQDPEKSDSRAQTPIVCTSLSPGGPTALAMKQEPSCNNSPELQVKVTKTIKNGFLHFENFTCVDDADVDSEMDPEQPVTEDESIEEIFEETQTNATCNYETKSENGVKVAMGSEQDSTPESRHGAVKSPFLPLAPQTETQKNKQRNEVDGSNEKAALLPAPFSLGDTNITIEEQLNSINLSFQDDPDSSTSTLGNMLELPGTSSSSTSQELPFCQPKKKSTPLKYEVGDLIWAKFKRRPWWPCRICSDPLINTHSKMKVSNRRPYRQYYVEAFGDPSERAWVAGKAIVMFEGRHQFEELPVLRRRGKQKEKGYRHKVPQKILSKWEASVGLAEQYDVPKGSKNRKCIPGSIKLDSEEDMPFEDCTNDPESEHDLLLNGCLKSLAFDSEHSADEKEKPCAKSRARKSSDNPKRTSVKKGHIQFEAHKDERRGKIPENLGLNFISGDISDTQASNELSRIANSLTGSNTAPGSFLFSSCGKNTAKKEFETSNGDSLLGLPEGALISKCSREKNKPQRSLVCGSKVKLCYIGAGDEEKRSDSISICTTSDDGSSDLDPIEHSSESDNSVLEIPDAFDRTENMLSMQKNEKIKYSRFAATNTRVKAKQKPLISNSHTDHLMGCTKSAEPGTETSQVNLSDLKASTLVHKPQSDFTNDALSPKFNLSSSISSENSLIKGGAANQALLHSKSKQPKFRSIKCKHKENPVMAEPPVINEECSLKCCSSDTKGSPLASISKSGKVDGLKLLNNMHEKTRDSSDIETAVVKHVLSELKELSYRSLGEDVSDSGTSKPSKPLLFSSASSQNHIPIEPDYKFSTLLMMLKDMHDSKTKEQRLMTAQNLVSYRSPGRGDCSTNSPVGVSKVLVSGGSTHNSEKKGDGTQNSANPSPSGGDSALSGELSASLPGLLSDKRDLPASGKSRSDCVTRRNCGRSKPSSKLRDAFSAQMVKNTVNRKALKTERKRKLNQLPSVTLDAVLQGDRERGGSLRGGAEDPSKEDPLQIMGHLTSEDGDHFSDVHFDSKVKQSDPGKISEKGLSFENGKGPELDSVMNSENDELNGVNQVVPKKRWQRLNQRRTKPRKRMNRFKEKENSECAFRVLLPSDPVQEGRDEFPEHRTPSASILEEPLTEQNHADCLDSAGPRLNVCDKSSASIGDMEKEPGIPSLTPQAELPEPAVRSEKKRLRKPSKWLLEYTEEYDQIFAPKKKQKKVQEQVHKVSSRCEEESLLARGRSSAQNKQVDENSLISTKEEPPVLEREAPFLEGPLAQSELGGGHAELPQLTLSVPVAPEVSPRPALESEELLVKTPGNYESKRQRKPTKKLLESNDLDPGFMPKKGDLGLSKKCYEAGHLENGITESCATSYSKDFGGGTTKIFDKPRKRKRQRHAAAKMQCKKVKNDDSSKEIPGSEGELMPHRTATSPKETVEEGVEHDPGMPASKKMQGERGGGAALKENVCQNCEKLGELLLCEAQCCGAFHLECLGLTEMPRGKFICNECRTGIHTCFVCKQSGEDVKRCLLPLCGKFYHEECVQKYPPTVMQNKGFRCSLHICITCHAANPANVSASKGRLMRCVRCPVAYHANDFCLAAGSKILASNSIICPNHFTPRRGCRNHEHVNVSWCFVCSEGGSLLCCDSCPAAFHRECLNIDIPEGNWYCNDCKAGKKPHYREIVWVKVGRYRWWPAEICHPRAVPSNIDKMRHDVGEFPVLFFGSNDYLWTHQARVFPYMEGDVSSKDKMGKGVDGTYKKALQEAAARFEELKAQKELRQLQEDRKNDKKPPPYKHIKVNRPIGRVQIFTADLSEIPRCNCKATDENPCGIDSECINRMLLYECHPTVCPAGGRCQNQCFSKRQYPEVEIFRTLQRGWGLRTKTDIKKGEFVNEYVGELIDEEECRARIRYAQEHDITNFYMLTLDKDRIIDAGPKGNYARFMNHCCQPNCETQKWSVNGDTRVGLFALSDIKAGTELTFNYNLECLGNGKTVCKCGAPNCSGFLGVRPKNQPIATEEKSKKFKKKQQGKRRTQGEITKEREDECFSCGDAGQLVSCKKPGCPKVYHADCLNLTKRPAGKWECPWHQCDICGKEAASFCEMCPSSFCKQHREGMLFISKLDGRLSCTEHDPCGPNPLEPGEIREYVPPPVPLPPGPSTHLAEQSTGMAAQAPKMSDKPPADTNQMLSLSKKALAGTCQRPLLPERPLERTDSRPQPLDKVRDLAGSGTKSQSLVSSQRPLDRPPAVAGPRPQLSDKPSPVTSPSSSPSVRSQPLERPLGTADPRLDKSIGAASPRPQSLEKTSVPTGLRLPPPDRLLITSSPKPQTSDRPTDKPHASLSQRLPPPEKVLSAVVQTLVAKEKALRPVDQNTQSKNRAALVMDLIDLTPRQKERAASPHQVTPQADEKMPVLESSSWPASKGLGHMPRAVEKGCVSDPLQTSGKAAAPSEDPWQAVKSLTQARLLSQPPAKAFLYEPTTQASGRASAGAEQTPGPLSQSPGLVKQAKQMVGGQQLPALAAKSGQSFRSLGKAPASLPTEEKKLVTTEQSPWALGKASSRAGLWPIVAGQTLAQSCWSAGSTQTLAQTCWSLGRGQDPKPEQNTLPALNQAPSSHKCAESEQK
Procedure: as §1

NSD2 = target: T2, NSD2 (Homo sapiens, UniProt O96028); conditions: Substrate:=Nucleosomes
T2 sequence (O96028 1-1365): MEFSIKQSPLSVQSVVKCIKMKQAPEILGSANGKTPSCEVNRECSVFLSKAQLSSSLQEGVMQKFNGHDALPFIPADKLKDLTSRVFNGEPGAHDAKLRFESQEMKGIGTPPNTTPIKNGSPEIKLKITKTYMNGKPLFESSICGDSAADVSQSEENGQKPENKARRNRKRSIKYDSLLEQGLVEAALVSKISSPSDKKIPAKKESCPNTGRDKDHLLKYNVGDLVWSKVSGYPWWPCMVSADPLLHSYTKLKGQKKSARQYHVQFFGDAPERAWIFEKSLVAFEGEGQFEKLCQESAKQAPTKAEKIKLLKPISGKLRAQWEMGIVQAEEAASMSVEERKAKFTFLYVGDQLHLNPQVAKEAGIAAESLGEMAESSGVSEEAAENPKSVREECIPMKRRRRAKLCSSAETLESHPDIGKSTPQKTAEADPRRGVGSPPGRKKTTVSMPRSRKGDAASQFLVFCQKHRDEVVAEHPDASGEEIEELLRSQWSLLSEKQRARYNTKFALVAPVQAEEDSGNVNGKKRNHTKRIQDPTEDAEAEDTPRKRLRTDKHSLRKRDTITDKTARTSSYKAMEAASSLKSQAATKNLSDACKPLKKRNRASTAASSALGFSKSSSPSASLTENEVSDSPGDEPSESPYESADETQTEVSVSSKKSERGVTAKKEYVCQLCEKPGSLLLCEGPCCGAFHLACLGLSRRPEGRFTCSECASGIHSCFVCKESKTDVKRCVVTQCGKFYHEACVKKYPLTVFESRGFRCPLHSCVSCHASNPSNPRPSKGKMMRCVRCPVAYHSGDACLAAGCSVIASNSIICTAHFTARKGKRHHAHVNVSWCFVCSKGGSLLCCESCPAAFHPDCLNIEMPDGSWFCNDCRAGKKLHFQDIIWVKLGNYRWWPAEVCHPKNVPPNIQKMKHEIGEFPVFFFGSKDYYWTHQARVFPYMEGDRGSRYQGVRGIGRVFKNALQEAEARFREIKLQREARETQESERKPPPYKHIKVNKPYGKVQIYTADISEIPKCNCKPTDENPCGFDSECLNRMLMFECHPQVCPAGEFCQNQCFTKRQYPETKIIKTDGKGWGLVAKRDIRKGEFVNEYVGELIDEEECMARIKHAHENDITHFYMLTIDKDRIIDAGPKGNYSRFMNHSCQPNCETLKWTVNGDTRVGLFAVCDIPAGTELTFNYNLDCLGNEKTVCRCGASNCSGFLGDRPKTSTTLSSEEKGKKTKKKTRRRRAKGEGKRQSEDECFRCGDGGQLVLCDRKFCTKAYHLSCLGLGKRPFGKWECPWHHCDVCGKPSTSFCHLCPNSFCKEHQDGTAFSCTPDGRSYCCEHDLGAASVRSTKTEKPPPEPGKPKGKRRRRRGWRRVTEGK
Procedure: as §1

[1] = read-out: Enzyme % Activity (relative to DMSO controls) / MS67 / 10 / Data 1:
[2] = read-out: Enzyme % Activity (relative to DMSO controls) / MS67 / 10 / Data 2:

## Cc1ncsc1-c1ccc([C@H](C)NC(=O)[C@@H]2C[C@@H](O)CN2C(=O)[C@@H](NC(=O)CNC(=O)c2ccc(F)c(-c3ccc(N4C[C@@H](C)N(C)[C@@H](C)C4)c(NC(=O)c4c[nH]c(=O)cc4C(F)(F)F)c3)c2)C(C)(C)C)cc1 [MS67]
G9a; [1]
  remaining activity at 10 µM: 93%
G9a; [2]
  remaining activity at 10 µM: 90.9%
NSD1; [1]
  remaining activity at 10 µM: 111%
NSD1; [2]
  remaining activity at 10 µM: 107%
NSD2; [1]
  remaining activity at 10 µM: 93%
NSD2; [2]
  remaining activity at 10 µM: 107%
